Data set [1] deals with T1, Intracellular tyrosinase in B16F10 cells (Mus musculus, UniProt P11344).
T1 construct: endogenous in cells; host or cells: B16F10 murine melanoma cells
T1 sequence (P11344 19-533): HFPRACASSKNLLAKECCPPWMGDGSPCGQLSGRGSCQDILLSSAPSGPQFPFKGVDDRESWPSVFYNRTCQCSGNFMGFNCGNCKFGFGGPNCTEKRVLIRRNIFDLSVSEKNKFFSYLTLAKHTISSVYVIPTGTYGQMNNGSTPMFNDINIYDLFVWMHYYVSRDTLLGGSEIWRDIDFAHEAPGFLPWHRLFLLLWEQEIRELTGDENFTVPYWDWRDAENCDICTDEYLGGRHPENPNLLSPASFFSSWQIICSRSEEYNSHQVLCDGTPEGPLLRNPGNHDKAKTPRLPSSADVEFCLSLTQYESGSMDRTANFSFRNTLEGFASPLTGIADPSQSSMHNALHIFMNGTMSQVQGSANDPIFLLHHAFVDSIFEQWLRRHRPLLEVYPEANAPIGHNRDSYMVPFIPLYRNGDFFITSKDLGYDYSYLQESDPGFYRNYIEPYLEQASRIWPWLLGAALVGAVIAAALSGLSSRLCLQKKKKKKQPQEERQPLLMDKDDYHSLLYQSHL
In words: Measurement of tyrosinase activity in B16F10 cells (L-DOPA oxidation). It counts as cell-based, murine. Particulars: 48 h. How it is done:
Intracellular tyrosinase activity was determined by measuring the rate of oxidation of L-DOPA to dopachrome according to a previously described method with a slight modification ([Maack and Pegard, 2016]). The tyrosinase inhibitor glabridin ([Zhang et al., 2023]) and tyrosinase activator 8-MOP ([Yin et al., 2018]) were both utilized as controls to ensure the accuracy of tyrosinase activity assay in living cells. B16F10 cells were cultured in 24-well plates at the density of 5 × 10^4 cells/mL overnight and then treated with different concentrations of test samples for 48 h. After treatments, cells were washed twice with PBS, lysed with PBS containing 1% Triton X-100, and frozen at −80°C for 1 h. The lysates were then clarified by centrifugation for 20 min at 4°C, 12,000 r/min. The protein content in the supernatants was measured using the Pierce BCA protein assay kit. After protein quantification and the adjustment of the protein concentrations, 100 μL of each lysate was mixed with 100 μL of 4 mM L-DOPA in a 96-well plate, and then incubated at 37°C for 1 h, the optical density at 475 nm was measured using a microplate reader. Tyrosinase activity was expressed as a percentage of the control. All experiments were carried out at least three times.

The next data set relates to TRP-1. In words: Western blotting of TRP-1 in B16F10 cells. The format is cell-based, murine. Conditions: 10 μM, 48 h. The protocol: (§1) Equal amounts of proteins from the preceding step were loaded and separated by using the 10% SDS-PAGE gels before being electro-transferred onto polyvinylidene fluoride membranes. The membrane was then blocked with 5% skim milk in TBST (Tris-buffered saline containing 0.1% Tween 20) at room temperature for 2 h. The blots were incubated overnight with primary antibodies against TYR, TRP-1, MITF, DCT, and β-actin at 4°C. After washing thrice with TBST (5 min), the membrane was incubated with the secondary antibody for 1 h at room temperature. The protein bands were detected using the ECL detection kit and imaged using a chemiluminescence gel imaging system, and the band intensities were analyzed by the Image J software.
(In general: Immunoblotting shows a protein as a band on a membrane.)

Another data set has as its system zebrafish embryos. The data set is described as follows: Determination of the maximum tolerated concentration (MTC) in zebrafish embryos. The format is in vivo. Particulars: 10 μM, 24 h. The protocol:
Zebrafish embryos that were developing normally at 24 h were chosen at random, five zebrafish embryos per well were seeded in 48 well plates, and each group was set up with three duplicates. The embryo culture medium in the 48-well plate was removed except the blank group, and 1 mL of culture medium containing different concentrations of test samples was added to treatment groups for 24 h. The vehicle control group was added to the embryo culture medium containing 0.1% of DMSO.

A further data set has as its system zebrafish larvae. The data set is described as follows: Melanogenesis in zebrafish larvae pretreated with PTU. It counts as in vivo. Particulars: 10 μM, 48 h, PTU 200 μM pretreatment. How it is done: To assess the effects of these compounds on melanogenesis in vivo, the total melanin content of whole zebrafish extracts was measured according to a previously described method with minor modification ([Karunarathne et al., 2019]; [Ding et al., 2021]). Briefly, zebrafish larvae of 24 h post-fertilized (hpf) were seeded in 24-well plates with ten embryos per well, each group was set up with four replicates and pretreated with 200 μM PTU for 24 h. Then, the culture medium was replaced with different concentrations of test samples and treated for another 48 h. 8-MOP (50 μM) was used as a positive control, blank controls were not treated and were cultured normally. In addition, to further verify the whitening effect of the compounds, ten zebrafish larvae (24 hpf) per well were seeded in a 24-well plate and cultured for another 24 h using fresh culture media, and each group was set up with four duplicates. Then, the culture medium was replaced with different concentrations of test samples, and the zebrafish larvae were incubated for another 48 h. 8-MOP (50 μM) and arbutin (100 mM) were used as positive controls. Spontaneous melanin content was measured from zebrafish larvae at 96 hpf. The fish embryos were fixed upright with sodium carboxymethylcellulose fixative. Five fish embryos from each experiment were randomly selected for photography under a stereomicroscope. The densitometric analysis was performed using Image J software.

The target of a further data set is mushroom tyrosinase (Agaricus bisporus, UniProt C7FF04). In words: Tyrosinase inhibition kinetic analysis (Lineweaver-Burk). It counts as biochemical. Particulars: Lineweaver-Burk plots, L-tyrosine substrate. How it is done:
The enzyme reaction kinetics of these compounds were measured by constructing Lineweaver-Burk plots of inverse velocities (1/[V]), contrary to the inverse of substrate concentration (1/[S]) ([Yoshino and Murakami, 2009]; [Butt et al., 2019]). Preincubations and measurement times were performed using the same protocol as described above. The substrate tyrosine concentration was kept between 0.5 and 8 mM in all kinetic studies, test sample concentrations were set as follows: glabridin (0–0.625 µM), KR (0–5 µM), SG (0–10 µM), IAI (0–2 µM). The values of the kinetic constants were calculated using Lineweaver-Burk plot analysis, and the maximum velocity (Vmax) and Michaelis constant (Km) were also calculated by the Lineweaver-Burk plots with the various concentrations of substrate.

Another data set concerns TYR. In words: Western blotting of TYR in B16F10 cells. It counts as cell-based, murine. Conditions: 10 μM, 48 h. How it is done:
as §1, with “[…],” for “TRP-1,”

The test system of a further data set is B16F10 cells. In words: Measurement of melanin content in B16F10 cells. The format is cell-based, murine. Conditions: 48 h. How it is done: Measurement of melanin content was carried out according to a previously described method with a slight modification ([Karunarathne et al., 2019]). B16F10 cells were cultured in 6-well plates at the density of 2 × 10^5 cells/mL overnight before being treated with different concentrations of test samples for 48 h. After the treatments, the medium was discarded and the cells were washed twice with PBS and were collected, then 200 μL of RIPA lysis buffer was added to each well, and left standing in an ice bath for 40 min. The lysates were then clarified by centrifugation for 20 min at 4°C, 12,000 r/min. The protein content in the supernatants was measured using the Pierce BCA protein assay kit. Then the harvested cell pellets were photographed and dissolved in 100 μL of 1 M NaOH (containing 10% DMSO) at 100°C for 1 h. Melanin content was determined by measuring absorption at 405 nm. For the accurate calculation of melanin content, absorbance values were normalized to total protein absorbance values.

A short description of data set [2]: Cell viability assay (MTT). The format is cell-based, murine. Conditions: mouse, B16F10 cells, 0–10 μM. The protocol: B16F10 cells were seeded into 96-well plates at the density of 5 × 10^4 cells/mL, and incubated at 37°C for 24 h. Then, the cells were treated with different concentrations of test samples for 48 h. After incubation, 20 μL MTT (5 mg/mL) was added to each well, and incubated for another 4 h at 37°C. The reaction was stopped by adding 150 μL DMSO per well. The optical density at 490 nm was measured using a microplate reader. Cell viability was calculated as the percentage of viable cells relative to the control group.

In the next data set the test system is DCT. In words: Western blotting of DCT in B16F10 cells. It counts as cell-based, murine. Particulars: 10 μM, 48 h. The protocol:
as §1

In another data set the target is tyrosinase. Also on record: method as in Kim et al., 2003. Particulars: ref Kim et al., 2003; read-out: IC50 (inhibition on tyrosinase activity); cited from earlier work.

Entries after “also recorded” stand apart in the source; their conditions may differ.

Chain of mushroom tyrosinase (C7FF04 1-392): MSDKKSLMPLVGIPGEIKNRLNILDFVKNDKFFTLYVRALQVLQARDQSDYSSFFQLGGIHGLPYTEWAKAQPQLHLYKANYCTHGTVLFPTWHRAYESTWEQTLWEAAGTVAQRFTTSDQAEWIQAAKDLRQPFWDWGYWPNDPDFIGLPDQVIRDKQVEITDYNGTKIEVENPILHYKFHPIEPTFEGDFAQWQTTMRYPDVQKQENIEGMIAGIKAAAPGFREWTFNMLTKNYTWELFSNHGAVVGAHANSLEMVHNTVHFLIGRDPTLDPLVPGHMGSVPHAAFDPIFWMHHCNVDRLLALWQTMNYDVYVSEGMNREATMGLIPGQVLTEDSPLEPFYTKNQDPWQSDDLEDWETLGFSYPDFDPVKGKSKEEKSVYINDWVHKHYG

On to `C=C(C)[C@H](CC=C(C)C)Cc1c(O)cc(O)c2c1O[C@H](c1ccc(O)cc1O)CC2=O` [SG, sophoraflavanone G], for which the “increase of tyrosinase activity in B16F10 cells” value in data set [1] (10 μM) turned out to be 45.7%. The “effect on tyrosinase activity in B16F10 cells (in words)” value in data set [1] is “did not exhibit significant activity”. Further, in the data set on TRP-1, the “upregulation of relative expression of TRP-1 protein” value is 229.3%. The “toxicity in zebrafish by the MTC assay” value with zebrafish embryos is reported as “nontoxic”. In the data set on zebrafish larvae, the “effect on melanin production vs model (PTU) group (in words)” value is reported as “no effect”. The “inhibition type on tyrosinase” value on mushroom tyrosinase was “mixed type”. In addition, the “increase of expression of TYR” value with TYR worked out at 78.4%. In addition, in the data set with B16F10 cells, the “effect on melanin production in B16F10 cells (in words)” value is recorded as “did not exhibit significant activity; also recorded: did not exert any significant effects”. For the same compound, the viability (in general, a read-out of living cells in per cent, often relative to untreated cells) at 48 h in data set [2] is > 80%. Besides, the “upregulation of relative expression of DCT protein” value in the data set with DCT is 70.0%. For the same compound, on tyrosinase, the IC50 (in general, the midpoint of a concentration-inhibition curve) is 6.6 µM.
